The NIST ThermoML archive (doi:10.1021/acs.jced.7b00712)
± gives the expanded uncertainty stated by the source.

Details: Brillouin light scattering

CCCCCCCC [octane]
Details | speed of sound [m/s]
573.03 K, 7000 kPa, Liquid | 341 ± 5
573.05 K, 4000 kPa, Fluid (supercritical or subcritical phases) | 228.1 ± 6.4
573.37 K, 10000 kPa, Liquid | 414 ± 5.7
573.6 K, 12000 kPa, Liquid | 454.4 ± 6.1
573.69 K, 3500 kPa, Fluid (supercritical or subcritical phases) | 189 ± 7.6
573.8 K, 3000 kPa, Fluid (supercritical or subcritical phases) | 135.4 ± 8.6
573.9 K, 4500 kPa, Fluid (supercritical or subcritical phases) | 250.4 ± 5.2
575.02 K, 4000 kPa, Fluid (supercritical or subcritical phases) | 217.1 ± 5.2
575.57 K, 7000 kPa, Liquid | 332.6 ± 4.9
576.28 K, 10000 kPa, Liquid | 408.7 ± 5.7
576.53 K, 12000 kPa, Liquid | 451.3 ± 6.1
577.56 K, 3000 kPa, Fluid (supercritical or subcritical phases) | 110.1 ± 9.4
577.56 K, 4500 kPa, Fluid (supercritical or subcritical phases) | 236.5 ± 6.1
577.86 K, 3500 kPa, Fluid (supercritical or subcritical phases) | 168.5 ± 6.8
578.92 K, 7000 kPa, Liquid | 323.1 ± 4.7
579.05 K, 4000 kPa, Fluid (supercritical or subcritical phases) | 198.3 ± 6.3
579.36 K, 10000 kPa, Liquid | 400.8 ± 5.6
579.57 K, 12000 kPa, Liquid | 444.1 ± 6
582.19 K, 3000 kPa, Fluid (supercritical or subcritical phases) | 86.9 ± 8.4
582.61 K, 3500 kPa, Fluid (supercritical or subcritical phases) | 144.9 ± 7.1
583.28 K, 4500 kPa, Fluid (supercritical or subcritical phases) | 215.8 ± 5.5
583.76 K, 4000 kPa, Fluid (supercritical or subcritical phases) | 181 ± 5.8
584.07 K, 5000 kPa, Fluid (supercritical or subcritical phases) | 239.2 ± 4.8
584.52 K, 6000 kPa, Fluid (supercritical or subcritical phases) | 280.5 ± 4.8
584.97 K, 7000 kPa, Fluid (supercritical or subcritical phases) | 314.5 ± 5
585.27 K, 8000 kPa, Fluid (supercritical or subcritical phases) | 351.8 ± 5.1
585.51 K, 9000 kPa, Fluid (supercritical or subcritical phases) | 367.9 ± 5.1
585.79 K, 10000 kPa, Fluid (supercritical or subcritical phases) | 392.1 ± 5.5
585.88 K, 3000 kPa, Fluid (supercritical or subcritical phases) | 88.4 ± 5.5
586.85 K, 3500 kPa, Fluid (supercritical or subcritical phases) | 124.2 ± 6.6
587.72 K, 4500 kPa, Fluid (supercritical or subcritical phases) | 200.5 ± 5.6
588.01 K, 4000 kPa, Fluid (supercritical or subcritical phases) | 166.2 ± 5.9
588.39 K, 5000 kPa, Fluid (supercritical or subcritical phases) | 226.1 ± 4.9
588.83 K, 6000 kPa, Fluid (supercritical or subcritical phases) | 270.2 ± 4.7
589.14 K, 7000 kPa, Fluid (supercritical or subcritical phases) | 302.3 ± 4.8
589.41 K, 8000 kPa, Fluid (supercritical or subcritical phases) | 337 ± 5
589.67 K, 9000 kPa, Fluid (supercritical or subcritical phases) | 358.4 ± 5.1
589.68 K, 3000 kPa, Fluid (supercritical or subcritical phases) | 93.7 ± 2.3
589.93 K, 10000 kPa, Fluid (supercritical or subcritical phases) | 385.1 ± 5.4
591.09 K, 3500 kPa, Fluid (supercritical or subcritical phases) | 108.6 ± 5.7
591.69 K, 4500 kPa, Fluid (supercritical or subcritical phases) | 186.7 ± 4.7
593.97 K, 5000 kPa, Fluid (supercritical or subcritical phases) | 206.7 ± 5.3
594.05 K, 4000 kPa, Fluid (supercritical or subcritical phases) | 140.2 ± 5.5
594.09 K, 6000 kPa, Fluid (supercritical or subcritical phases) | 255.1 ± 4.8
594.28 K, 7000 kPa, Fluid (supercritical or subcritical phases) | 290.8 ± 4.7
594.52 K, 8000 kPa, Fluid (supercritical or subcritical phases) | 322.3 ± 4.8
594.74 K, 9000 kPa, Fluid (supercritical or subcritical phases) | 346.5 ± 5
594.9 K, 3000 kPa, Fluid (supercritical or subcritical phases) | 102.1 ± 1.4
594.94 K, 10000 kPa, Fluid (supercritical or subcritical phases) | 374.1 ± 5.3
596.02 K, 3500 kPa, Fluid (supercritical or subcritical phases) | 100.7 ± 4.5
597.28 K, 4500 kPa, Fluid (supercritical or subcritical phases) | 170.5 ± 5
598.63 K, 4000 kPa, Fluid (supercritical or subcritical phases) | 125.5 ± 5.4
599.12 K, 3000 kPa, Fluid (supercritical or subcritical phases) | 108.9 ± 2.6
599.17 K, 5000 kPa, Fluid (supercritical or subcritical phases) | 192.7 ± 4.8
599.18 K, 6000 kPa, Fluid (supercritical or subcritical phases) | 241.2 ± 4.6
599.55 K, 7000 kPa, Fluid (supercritical or subcritical phases) | 276.6 ± 4.6
599.72 K, 8000 kPa, Fluid (supercritical or subcritical phases) | 309.6 ± 4.7
599.76 K, 3500 kPa, Fluid (supercritical or subcritical phases) | 95.6 ± 3.6
600 K, 9000 kPa, Fluid (supercritical or subcritical phases) | 334 ± 4.8
601 K, 10000 kPa, Fluid (supercritical or subcritical phases) | 358.1 ± 5.2
601.1 K, 4500 kPa, Fluid (supercritical or subcritical phases) | 159.7 ± 4.9
602.47 K, 4000 kPa, Fluid (supercritical or subcritical phases) | 114.3 ± 6.6
603.01 K, 5000 kPa, Fluid (supercritical or subcritical phases) | 180.4 ± 4.5
603.24 K, 6000 kPa, Fluid (supercritical or subcritical phases) | 226.2 ± 4.2
603.85 K, 8000 kPa, Fluid (supercritical or subcritical phases) | 299 ± 4.8
604.21 K, 9000 kPa, Fluid (supercritical or subcritical phases) | 324.3 ± 4.7
605.28 K, 3000 kPa, Fluid (supercritical or subcritical phases) | 116.6 ± 4
605.73 K, 3500 kPa, Fluid (supercritical or subcritical phases) | 94.8 ± 2.3
606.87 K, 4000 kPa, Fluid (supercritical or subcritical phases) | 111.1 ± 5.5
607.11 K, 4500 kPa, Fluid (supercritical or subcritical phases) | 144.8 ± 5.2
607.61 K, 5000 kPa, Fluid (supercritical or subcritical phases) | 169.3 ± 4.4
607.97 K, 6000 kPa, Fluid (supercritical or subcritical phases) | 215.3 ± 4.5
608.4 K, 7000 kPa, Fluid (supercritical or subcritical phases) | 254.8 ± 4.4
608.86 K, 8000 kPa, Fluid (supercritical or subcritical phases) | 285.3 ± 4.4
609.24 K, 9000 kPa, Fluid (supercritical or subcritical phases) | 312.3 ± 4.6
609.54 K, 10000 kPa, Fluid (supercritical or subcritical phases) | 340.1 ± 5
610.17 K, 3000 kPa, Fluid (supercritical or subcritical phases) | 124.3 ± 3.7
610.28 K, 3500 kPa, Fluid (supercritical or subcritical phases) | 103.2 ± 3.7
611.94 K, 4500 kPa, Fluid (supercritical or subcritical phases) | 133.3 ± 4.3
612.5 K, 4000 kPa, Fluid (supercritical or subcritical phases) | 108.7 ± 4
613.58 K, 5000 kPa, Fluid (supercritical or subcritical phases) | 153.7 ± 4.5
613.8 K, 6000 kPa, Fluid (supercritical or subcritical phases) | 204.8 ± 4.5
614.19 K, 7000 kPa, Fluid (supercritical or subcritical phases) | 242.3 ± 4.2
614.65 K, 8000 kPa, Fluid (supercritical or subcritical phases) | 273.2 ± 4.3
614.76 K, 3000 kPa, Fluid (supercritical or subcritical phases) | 129.2 ± 3.3
614.83 K, 3500 kPa, Fluid (supercritical or subcritical phases) | 111.5 ± 1.5
615.18 K, 9000 kPa, Fluid (supercritical or subcritical phases) | 302 ± 4.6
616.02 K, 4500 kPa, Fluid (supercritical or subcritical phases) | 128.5 ± 3.6
616.33 K, 5000 kPa, Fluid (supercritical or subcritical phases) | 148.3 ± 3.9
617.46 K, 4000 kPa, Fluid (supercritical or subcritical phases) | 110.4 ± 3.3
619.43 K, 3000 kPa, Fluid (supercritical or subcritical phases) | 134.1 ± 3
619.62 K, 3500 kPa, Fluid (supercritical or subcritical phases) | 119 ± 1.6
619.76 K, 4500 kPa, Fluid (supercritical or subcritical phases) | 125.2 ± 2
620.31 K, 5000 kPa, Fluid (supercritical or subcritical phases) | 144 ± 3.7
622 K, 4000 kPa, Fluid (supercritical or subcritical phases) | 112.6 ± 2.7
623.42 K, 5000 kPa, Fluid (supercritical or subcritical phases) | 141.6 ± 3.7
623.5 K, 6000 kPa, Fluid (supercritical or subcritical phases) | 184.3 ± 4.1
623.84 K, 7000 kPa, Fluid (supercritical or subcritical phases) | 224.1 ± 4.1
624.5 K, 8000 kPa, Fluid (supercritical or subcritical phases) | 254.1 ± 4.1
624.55 K, 3500 kPa, Fluid (supercritical or subcritical phases) | 124.9 ± 2.6
624.66 K, 4000 kPa, Fluid (supercritical or subcritical phases) | 114.2 ± 1.5
624.87 K, 9000 kPa, Fluid (supercritical or subcritical phases) | 283.1 ± 4.4
624.89 K, 3000 kPa, Fluid (supercritical or subcritical phases) | 139.4 ± 2.9
625 K, 4500 kPa, Fluid (supercritical or subcritical phases) | 125.1 ± 2.6
625.29 K, 5000 kPa, Fluid (supercritical or subcritical phases) | 139.2 ± 3
628.69 K, 4000 kPa, Fluid (supercritical or subcritical phases) | 120.4 ± 1.7
629.77 K, 5000 kPa, Fluid (supercritical or subcritical phases) | 137.3 ± 2.5
629.96 K, 3500 kPa, Fluid (supercritical or subcritical phases) | 132.1 ± 1.9
630.15 K, 3000 kPa, Fluid (supercritical or subcritical phases) | 144.3 ± 2.7
630.45 K, 4500 kPa, Fluid (supercritical or subcritical phases) | 126.6 ± 2.3
632.06 K, 4000 kPa, Fluid (supercritical or subcritical phases) | 124.2 ± 1.7
633.13 K, 5000 kPa, Fluid (supercritical or subcritical phases) | 137.6 ± 2.6
633.62 K, 6000 kPa, Fluid (supercritical or subcritical phases) | 169.8 ± 3.5
633.94 K, 7000 kPa, Fluid (supercritical or subcritical phases) | 204.8 ± 3.9
634.48 K, 8000 kPa, Fluid (supercritical or subcritical phases) | 240.7 ± 4.3
635.95 K, 3000 kPa, Fluid (supercritical or subcritical phases) | 149.3 ± 2.5
635.97 K, 3500 kPa, Fluid (supercritical or subcritical phases) | 140 ± 2.3
636.07 K, 4000 kPa, Fluid (supercritical or subcritical phases) | 131.6 ± 1.9
636.31 K, 4500 kPa, Fluid (supercritical or subcritical phases) | 132 ± 1.7
637.58 K, 5000 kPa, Fluid (supercritical or subcritical phases) | 140.4 ± 2.2
638.73 K, 3500 kPa, Fluid (supercritical or subcritical phases) | 142.4 ± 2.1
638.9 K, 3000 kPa, Fluid (supercritical or subcritical phases) | 152.4 ± 2.5
639.03 K, 4500 kPa, Fluid (supercritical or subcritical phases) | 134.5 ± 1.8
642.09 K, 5000 kPa, Fluid (supercritical or subcritical phases) | 144.1 ± 2
642.28 K, 6000 kPa, Fluid (supercritical or subcritical phases) | 160.5 ± 2.9
642.66 K, 4000 kPa, Fluid (supercritical or subcritical phases) | 142.7 ± 1.9
642.75 K, 7000 kPa, Fluid (supercritical or subcritical phases) | 194.7 ± 3.8
643.16 K, 8000 kPa, Fluid (supercritical or subcritical phases) | 229.4 ± 4.1
